Read-outs that look alike come from different tables or passages of the source.
How the values were obtained:
Hyperlipidemic Hamster = assay: In Vivo Assay of Hypolipidemic Agents Using the Hyperlipidemic Hamster; settings: Mesocricetus auratus, po, 168 h, 7 days, percent change versus control, negative = lowering; for change in vivo at 50 mg/kg: 50 mg/kg once daily oral; for change in vivo at 3 mg/kg: 3 mg/kg once daily oral; for change in vivo at 10 mg/kg: 10 mg/kg once daily oral
In short: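 Hamsters, six per group, were fed chow with 0.5% cholesterol for seven days and given compound once daily by oral gavage in corn oil; controls received corn oil alone. Plasma (EDTA) and liver lipids were measured at sacrifice. Values are percent change versus control, so negative means lowering.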

ACAT = target: T1, ACAT (Rattus norvegicus, UniProt Q7TQM4); assay: ACAT Assay (in vitro); format: biochemical; settings: for inhibition at 10 µM: Conc. 10 µM, negative = apparent stimulation, read-out: ACAT (in vitro) % Inhib.; for IC50: rat liver microsomes, read-out: ACAT (in vitro) IC50
T1 construct: Rat liver microsomes are used as the source of ACAT; from tissue; host or cells: rat liver microsomes
T1 sequence (Q7TQM4 1-524): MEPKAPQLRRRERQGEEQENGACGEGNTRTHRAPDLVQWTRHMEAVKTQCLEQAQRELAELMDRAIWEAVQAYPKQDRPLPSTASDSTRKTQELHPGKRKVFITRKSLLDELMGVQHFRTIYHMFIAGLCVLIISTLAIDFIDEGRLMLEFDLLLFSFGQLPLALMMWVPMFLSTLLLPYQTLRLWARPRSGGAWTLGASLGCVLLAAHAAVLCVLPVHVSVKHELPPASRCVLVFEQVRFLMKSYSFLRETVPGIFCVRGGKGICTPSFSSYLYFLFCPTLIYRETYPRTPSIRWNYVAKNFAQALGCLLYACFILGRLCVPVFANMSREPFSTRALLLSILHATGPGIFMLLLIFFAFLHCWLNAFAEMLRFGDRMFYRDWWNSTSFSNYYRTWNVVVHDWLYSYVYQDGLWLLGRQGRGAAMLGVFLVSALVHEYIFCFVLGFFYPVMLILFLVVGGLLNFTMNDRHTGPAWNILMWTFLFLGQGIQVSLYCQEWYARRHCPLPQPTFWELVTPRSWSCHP

[1] = read-out: % Reduction (in vivo) Cholest. Esters
[2] = read-out: % Reduction (in vivo) Serum Cholest.

SMILES	inhibition at 10 µM (ACAT)	change in vivo at 50 mg/kg (Hyperlipidemic Hamster; [1])	change in vivo at 50 mg/kg (Hyperlipidemic Hamster; [2])	also measured
COc1ccc(N2C(=O)C(c3ccccc3)(C3CCCC3)C2c2ccccc2)cc1 (centres unmarked) [Example 1AC]	40%	-33%	-16%	–
CC[C@@H]1C(=O)N(c2ccc(OC)cc2)[C@@H]1c1ccc(OC)cc1 (relative stereo) [Example 1AL]	-43%	0%	0%	–
COc1ccc(N2C(=O)[C@H](CCCc3ccccc3)[C@@H]2c2cccc(OC(F)(F)F)c2)cc1 (relative stereo) [Example 1BK]	55%	0%	0%	–
CC[C@@H]1C(=O)N(c2ccc(OC)cc2)[C@H]1c1ccc([N+](=O)[O-])cc1 (relative stereo) [Example 1AJ]	-17%	0%	0%	–
COc1ccc(N2C(=O)[C@H](CCCc3ccccc3)[C@H]2c2ccc(CN3CCOCC3)cc2)cc1 (relative stereo) [Example 19]	24%	-51%	-20%	–
CC[C@H]1C(=O)N(c2ccc(OC)cc2)[C@@H]1c1ccccc1 (relative stereo) [Example 1AD]	-5%	–	–	–
COc1ccc(N2C(=O)[C@](Cc3ccccc3)(c3ccccc3)[C@@H]2c2ccccc2)cc1 (relative stereo) [Example 1Y]	50%	–	–	–
CC[C@H]1C(=O)N(c2ccc(OC)cc2)[C@H]1c1ccccc1 (relative stereo) [Example 1AB]	17%	–	–	–
CC[C@]1(CCCc2ccccc2)C(=O)N(c2c(OC)cc(OC)cc2OC)[C@H]1C=Cc1ccccc1 (relative stereo) [Example 1J]	86%	–	–	IC50 (ACAT): 3 µM
CC[C@H]1C(=O)N(c2ccc(OC)cc2)[C@H]1c1ccc([N+](=O)[O-])cc1 (relative stereo) [Example 1AK]	-33%	–	–	–
COc1ccc(N2C(=O)[C@H](c3ccccc3)[C@H]2c2ccccc2)cc1 (relative stereo) [Example 1V]	64%	–	–	–
COc1ccc(N2C(=O)[C@H](C(C)C)[C@@H]2c2ccccc2)cc1 (relative stereo) [Example 1W]	9%	–	–	–
CC[C@@H]1C(=O)N(c2ccc(OC)cc2)[C@@H]1c1ccc(N)cc1 (relative stereo) [Example 8]	-12%	–	–	–
CC[C@@]1(CCCc2ccccc2)C(=O)N(c2c(OC)cc(OC)cc2OC)[C@H]1C=Cc1ccccc1 (relative stereo) [Example 1I]	81%	–	–	IC50 (ACAT): 4.5 µM
COc1ccc(N2C(=O)[C@H](c3ccccc3)[C@@H]2c2ccccc2)cc1 (relative stereo) [Example 4]	16%	–	–	–
CC[C@H]1C(=O)N(c2c(OC)cc(OC)cc2OC)[C@H]1c1ccccc1 (relative stereo) [Example 1AE]	-7%	–	–	–

SMILES	inhibition at 10 µM (ACAT)	change in vivo at 50 mg/kg (Hyperlipidemic Hamster; [1])	change in vivo at 50 mg/kg (Hyperlipidemic Hamster; [2])	also measured
COc1ccc(N2C(=O)[C@@H](C)[C@@H]2c2ccccc2)cc1 (relative stereo) [Example 1AI]	27%	–	–	–
COc1ccc(N2C(=O)[C@@H](C)[C@H]2c2ccccc2)cc1 (relative stereo) [Example 1AH]	4%	–	–	–
CC[C@H]1C(=O)N(c2ccc(OC)cc2)[C@H]1C=Cc1ccccc1 (relative stereo) [Example 1AF]	0%	–	–	–
CC[C@]1(c2ccccc2)C(=O)N(c2ccc(OC)cc2)[C@H]1c1ccccc1 (relative stereo) [Example 1AA]	-36%	–	–	–
COc1ccc(N2C(=O)[C@@H](CCc3ccccc3)[C@@H]2c2ccccc2)cc1 (relative stereo) [Example 1E]	3%	–	–	–
COc1ccc(N2C(=O)[C@H](CCCc3ccccc3)[C@@H]2c2cc3ccccc3o2)cc1 (relative stereo) [Example 1BZ]	–	0%	-9%	–
COc1ccc([C@@H]2[C@@H](CCCc3ccccc3)C(=O)N2c2cccc3c2CCCC3)cc1 (relative stereo) [Example 7AS]	–	-20%	0%	–
CON=Cc1ccc([C@H]2[C@@H](CCCc3ccccc3)C(=O)N2c2ccc(OC)cc2)cc1 (relative stereo) [Example 27]	–	-36%	-12%	–
COc1ccc(N2C(=O)[C@H](CCCc3ccccc3)[C@@H]2c2ccc(-c3ccccc3)cc2)cc1 (relative stereo) [Example 1BT]	–	0%	0%	–
COc1ccc(N2C(=O)[C@@H](CCCc3ccccc3)[C@@H]2c2ccc(SC)cc2)cc1 (relative stereo) [Example 1CM]	–	0%	0%	–
COc1ccc([C@@H]2[C@@H](CCCc3ccccc3)C(=O)N2c2ccc(OC(F)(F)F)cc2)cc1 (relative stereo) [Example 1AN]	–	-85%	-34%	–
CCOc1ccc([C@@H]2[C@@H](CCCc3ccccc3)C(=O)N2c2ccccc2)cc1 (relative stereo) [Example 7Y]	–	-94%	-53%	change in vivo at 3 mg/kg (Hyperlipidemic Hamster; [1]): -55%; change in vivo at 3 mg/kg (Hyperlipidemic Hamster; [2]): -22%; change in vivo at 10 mg/kg (Hyperlipidemic Hamster; [1]): -79%; change in vivo at 10 mg/kg (Hyperlipidemic Hamster; [2]): -27%
COc1ccc(N2C(=O)[C@H](CCCc3ccccc3)[C@@H]2c2ccc(NS(C)(=O)=O)cc2)cc1 (relative stereo) [Example 25]	–	-34%	-8%	–
COc1ccc(N2C(=O)[C@H](CCCc3ccccc3)[C@H]2c2cc(I)c(O)c(I)c2)cc1 (relative stereo) [Example 32A]	–	0%	0%	–
COc1ccc(N2C(=O)[C@H](CCCc3ccccc3)[C@@H]2c2ccc(C3OCCO3)cc2)cc1 (relative stereo) [Example 31]	–	-52%	-19%	–
COc1ccc([C@@H]2[C@@H](CCCc3ccccc3)C(=O)N2c2ccc(S(C)(=O)=O)cc2)cc1 (relative stereo) [Example 17B]	–	-39%	0%	–

Continued, in another order:

inhibition at 10 µM (ACAT)	SMILES	change in vivo at 50 mg/kg (Hyperlipidemic Hamster; [1])	change in vivo at 50 mg/kg (Hyperlipidemic Hamster; [2])	also measured
46%	CCCCCCCCCC[C@]1(CCCc2ccccc2)C(=O)N(c2ccc(OC)cc2)[C@@H]1c1ccccc1 (relative stereo) [Example 3U]	0%	0%	–
-37%	COc1ccc([C@@H]2[C@@H](CCCc3ccccc3)C(=O)N2c2ccc(O)cc2)cc1 (relative stereo) [Example 10A]	-58%	-19%	–
-8%	CCCCCCCCCC[C@]1(c2ccccc2)C(=O)N(c2ccc(OC)cc2)[C@H]1c1ccccc1 (relative stereo) [Example 3R]	0%	0%	–
-23%	COc1ccc([C@@H]2[C@@H](N(C)CCc3ccccc3)C(=O)N2c2ccccc2)cc1 (relative stereo) [Example 5N]	-55%	-17%	–
62%	COc1ccc(N2C(=O)C(CCCc3ccccc3)(CCCc3ccccc3)C2C=Cc2ccccc2)cc1 (centres unmarked) [Example 3N]	0%	0%	–
45%	COc1ccc(N2C(=O)[C@@](C)(CCCc3ccccc3)[C@@H]2c2ccccc2)cc1 (relative stereo) [Example 3J]	-16%	0%	–
63%	COc1ccc(N2C(=O)[C@H](CCCc3ccccc3)[C@H]2c2ccc(N)cc2)cc1 (relative stereo) [Example 8C]	0%	0%	–
19%	COc1ccc(N2C(=O)[C@@](C)(CCCCc3ccccc3)[C@@H]2c2ccccc2)cc1 (relative stereo) [Example 3K]	0%	0%	–
-18%	CCCCCCCCCC[C@@]1(CCCc2ccccc2)C(=O)N(c2ccc(OC)cc2)[C@@H]1c1ccccc1 (relative stereo) [Example 3C]	–	–	–
-9%	CCCCCCCCCC[C@@]1(CC)C(=O)N(c2ccc(OC)cc2)[C@@H]1c1ccccc1 (stereo in doubt) [Example 3T]	–	–	–
-70%	COc1ccc(N2C(=O)[C@@H](C(C)C)[C@@H]2c2ccccc2)cc1 (relative stereo) [Example 5A]	–	–	–
